According to patent US5536740A, “Skin care compositions containing dimethyl imidazolidinone and retinol or retinyl ester” (priority 1995, dated 1996):
“Also recorded” adds a separate entry of the source. Where two headings read alike, the source gives them in different places.

What was measured:
[1] = test system: TGase I in human keratinocytes; assay: ELISA based transglutaminase I (TGase I) assay of keratinocyte differentiation; format: cell-based
Protocol: (§1) Human keratinocytes, isolated from neonatal foreskin by trypsin treatment were grown in Dulbecco Modification Eagle (DME) Hams F12 (1:1) medium/10% fetal calf serum in the presence of irradiated 3T3 mouse fibroblasts for establishing dividing keratinocyte colonies. Cells were grown under the above condition until their second passage and kept frozen for future use. […] On day 7, when the cells were 80-90% confluent, they were trypsinized and plated in the serum-free medium for the various experiments.
Transglutaminase Assay and Keratinocyte Differentiation
During the process of terminal differentiation in the epidermis, a 15 nm thick layer of protein, known as the cornified envelope (CE) is formed on the inner surface of the cell periphery. The CE is composed of numerous distinct proteins which have been cross-linked together by the formation of N^ε -(γ-glutamyl)lysine isodipeptide bonds catalyzed by the action of at least two different transglutaminases (TGases) expressed in the epidermis. TGase 1 is expressed in abundance in the differentiated layers of the epidermis, especially the granular layer, but is absent in the undifferentiated basal epidermis. Thus TGase I is a useful marker of epidermal keratinocyte differentiation with high TGase I levels indicating a more differentiated state. An ELISA based TGase I assay, using a TGase I antibody, was used to assess the state of differentiation of the cultured keratinocytes in the examples that follow.
Keratinocytes (cultured as described above) were plated in 96 well plates at a density of 3,000 cells per well in 200 μl media. After incubation for four days the media was changed to media containing test compounds (six replicates per test). The cells were cultured for a further 72 hours after which time the media was aspirated and the plates stored at -70° C. Plates were removed from the freezer, and the cells washed with PBS. 100 μl sterile water was added and the cells were freeze fractured by freezing at -70° C. then thawing. The cells were incubated for one hour at room temperature (R/T) with PBS/3% BSA (wash buffer, bovine serum albumin), then rinsed with a fresh aliquot of wash buffer. Cells were incubated with 50 μl of primary antibodies monoclonal anti-human transglutaminase (IgG) obtained from Amersham (mouse) diluted 1:300 in wash buffer for one hour, 37° C. then rinsed two times with wash buffer. Cells were then incubated with 50 μl of secondary antibody (Feb fragment, peroxidase conjugated anti-mouse IgG obtaining from Amersham) diluted 1:200 in wash buffer for one hour at 37° C., then rinsed two times with wash buffer. Cells were incubated with substrate solution (4 mg o-phenylene diamine and 3.3 μl 30% H2 O2 in 10 ml 0.1M citrate buffer pH 5.0) for five minutes, R/T, in darkness (under aluminum foil). The reaction was stopped by the addition of 50 μl 4N […]. The absorbance of samples was read at 492 nm in the plate reader. Out of the six replicates, four were treated with both antibodies, two were treated only with the secondary antibody (i.e., to determine background binding of enzyme conjugated Ab). TGase levels were determined by subtracting background from the readings from each treatment and determining mean ±s.d. for the replicates exposed to both Ab.
The level of TGase-1 was normalized to DNA content of the cells in the same well thus eliminating variation due to differences in cell number. DNA quantitation is a particularly useful indicator of cell number, including keratinocyte cell number, because each cell has to all intents and purposes an identical genome and therefore an identical quantity of DNA. The total DNA content of a well of cells therefore is directly proportional to the cell number in that well. Quantitation of DNA was used to normalize the TGase data to cell number.
Keratinocytes were plated in 96 well plates at a density of 3,000 cells per well in […] media.

Human keratinocytes = assay: 3H-thymidine incorporation assay of keratinocyte proliferation; format: cell-based; settings: for mean Thymidine incorp/μg protein ± s.d / mean Thymidine incorp./μg protein ± s.d / activity at 0.25 µM / activity at 0.025 µM / activity at 0.0025 µM: 24 hours
Protocol: as §1
^3 H-Thymidine Incorporation and Keratinocyte Proliferation
The incorporation of ^3 H-thymidine by cultured keratinocytes was used as an assay of keratinocyte proliferation. Thymidine is one of four deoxynucleosides which are the monomeric units of DNA, the universal library of genetic information in the animal kingdom. Prior to cell division of a somatic cell such as a keratinocyte, the complete genome of the cell undergoing cell division is replicated. This involves large scale DNA synthesis by the cell and enables both daughter cells to receive identical copies of the genetic material. When ^3 H-thymidine is included in the culture media of keratinocytes which are synthesizing DNA in preparation for cell division then the labelled nucleoside is incorporated into the newly synthesized DNA. The extent of incorporation of ^3 -thymidine into a population of cells is proportional to the rate of DNA synthesis by this population of cells and therefore an indication of their cellular proliferation.
Keratinocytes (that were cultured as described above) were plated in 24 well plates at a density of 40,000 cells per well in 1 ml media. After incubation for four days or until the cells were 60-70% confluent, the media was changed. Test compounds were added (in triplicate) to the wells 24 hours after the media change, and four hours later 1 μCi^3 H-Thymidine in 50 μl media was added per well. Cells were incubated for a further 24 hours. Media was removed from the cells, 10% ice cold trichloroacetic acid (TCA) added and plates were incubated on ice for 30 minutes. Cells were washed five times with 5% TCA and allowed to dissolve in 500 μl 0.1M NaOH for at least one hour (usually overnight). The preparations were neutralized with 0.1M HCl; 50 μl of the cell preparation was used to determine total protein content. Disintegrations per minute (DPM) from a H labelling of DNA was determined by liquid scintillation counting of 900 μl of the cell preparation. Thymidine incorporation results were expressed as DPM/μg protein.

[2] = 2.5 × 10^-7 M, normalized to DNA, 72 hours, n = 3
[3] = 2.5 × 10^-8 M, normalized to DNA, 72 hours, n = 3
[4] = 2.5 × 10^-9 M (ROH line printed 2.5 × 10^-0 M), normalized to DNA, 72 hours, n = 3
[5] = Example 4, 2.5 × 10^-8 M, n = 3
[6] = Homo sapiens, Keratinocyte, 72 h, 2.5 × 10^-7 M, normalized to DNA, 72 hours, n = 3, read-out: mean TGase/DNA (% control)
[7] = Homo sapiens, Keratinocyte, 72 h, 2.5 × 10^-8 M, normalized to DNA, 72 hours, n = 3, read-out: mean TGase/DNA (% control)
[8] = Homo sapiens, Keratinocyte, 72 h, 2.5 × 10^-9 M (ROH line printed 2.5 × 10^-0 M), normalized to DNA, 72 hours, n = 3, read-out: mean TGase/DNA (% control)
[9] = Homo sapiens, Keratinocyte, 72 h, Example 4, 2.5 × 10^-8 M, n = 3, read-out: mean TGase (% control)
[10] = 2.5 × 10^-8 M, n = 3 (Examples 1-3)
[11] = Homo sapiens, Keratinocyte, 2.5 × 10^-7 M, n = 3, read-out: mean Thymidine incorp./μg protein (% control)
[12] = Homo sapiens, Keratinocyte, 2.5 × 10^-8 M, n = 3 (Examples 1-3), read-out: mean Thymidine incorp./μg protein (% control)
[13] = Homo sapiens, Keratinocyte, 2.5 × 10^-9 M, n = 3, read-out: mean Thymidine incorp./μg protein (% control)
[14] = Homo sapiens, Keratinocyte, Example 4, 2.5 × 10^-8 M, n = 3, read-out: mean Thymidine incorp/μg protein (% control)

For `CN1CCN(C)C1=O` [Dimethyl imidazolidinone, 1,3-dimethyl-2-imidazolidinone], the “effect on keratinocyte TGase level / differentiation (in words)” value [1] was “had no effect on keratinocyte TG1 levels”, the “mean TGase ± s.d” value ([1]; Example 4, 10^-8 M, n = 3) was 0.990 ± 0.251 and the activity at 0.01 µM ([1]; Homo sapiens, Keratinocyte, 72 h, read-out: mean TGase (% control)) was 99%. The “effect on keratinocyte proliferation (in words)” value (Human keratinocytes) was “had no effect on keratinocyte proliferation on its own; also recorded: exerts little or no benefit”, the “mean Thymidine incorp/μg protein ± s.d” value (Human keratinocytes; 10^-6 M, n = 3) was 1892 ± 119 DPM/μg protein and the “mean Thymidine incorp/μg protein ± s.d” value (Human keratinocytes; 10^-7 M, n = 3 (Example 3)) was 2260 ± 166 DPM/μg protein. The “mean Thymidine incorp/μg protein ± s.d” value (Human keratinocytes; 10^-9 M, n = 3) was 2003 ± 128 DPM/μg protein, the “mean Thymidine incorp/μg protein ± s.d” value (Human keratinocytes; Example 4, 10^-7 M, n = 3) was 3214 ± 128 DPM/μg protein and the activity at 1 µM (Human keratinocytes; Homo sapiens, Keratinocyte, 24 h, read-out: mean Thymidine incorp/μg protein (% control), 10^-6 M, 24 hours, n = 3) was 90%. For the same compound, the activity at 0.1 µM (Human keratinocytes; Homo sapiens, Keratinocyte, 24 h, read-out: mean Thymidine incorp/μg protein (% control), 10^-7 M, 24 hours, n = 3 (Example 3)) was 108%, the activity at 0.001 µM (Human keratinocytes; Homo sapiens, Keratinocyte, 24 h, read-out: mean Thymidine incorp/μg protein (% control), 10^-9 M, 24 hours, n = 3) was 96% and the activity at 0.1 µM (Human keratinocytes; Homo sapiens, Keratinocyte, 24 h, read-out: mean Thymidine incorp/μg protein (% control), Example 4, 10^-7 M, 24 hours, n = 3) was 92%.

In the case of `CC1=C(/C=C/C(C)=C/C=C/C(C)=C/C(=O)O)C(C)(C)CCC1` [RA, retinoic acid, reference compound], the “mean TGase/DNA × 10^-4 ± s.d” value [1, 2] is reported as 0.16 ± 0.11 × 10^-4, the “mean TGase/DNA × 10^-4 ± s.d” value [1, 3] is reported as 1.34 ± 0.40 × 10^-4 and the “mean TGase/DNA × 10^-4 ± s.d” value [1, 4] is reported as 1.87 ± 0.49 × 10^-4. For the same compound, the “mean TGase ± s.d” value [1, 5] was 0.155 ± 0.098, the “mean TGase (% control)” value ([1]; Example 4, 2.5 × 10^-8 M, n = 3, 0.025 µM, 4320 min) was 15% and the activity at 0.25 µM [1, 6] was 7%. For the same compound, the activity at 0.025 µM [1, 7] was 55%, the activity at 0.0025 µM [1, 8] was 77% and the activity at 0.025 µM [1, 9] was 16%. The “effect on keratinocyte TGase level / differentiation (in words)” value ([1]; listed as Retinoic acid) was “decreased keratinocyte differentiation”, the “effect on keratinocyte TGase level / differentiation (in words)” value ([1]; listed as retinoic acid) was “decreased keratinocyte TGase level over both the ethanol control and did so to a significantly greater extent than each of the corresponding 2.5×10^-7 M, 2.5×10^-8 M and 2.5×10^-9 M retinol treatments” and the “mean Thymidine incorp./μg protein ± s.d” value (Human keratinocytes; 2.5 × 10^-7 M, n = 3) was 2475 ± 116 DPM/μg protein. The “mean Thymidine incorp./μg protein ± s.d” value (Human keratinocytes; [10]) was 2686 ± 72 DPM/μg protein, the “mean Thymidine incorp./μg protein ± s.d” value (Human keratinocytes; 2.5 × 10^-9 M, n = 3) was 2556 ± 80 DPM/μg protein and the “mean Thymidine incorp/μg protein ± s.d” value (Human keratinocytes; [5]) was 3691 ± 205 DPM/μg protein. The activation at 0.025 µM (Human keratinocytes; Homo sapiens, Keratinocyte, read-out: increase in keratinocyte thymidine incorporation over the 2.5×10^-8 M retinol treatment, Example 2, 2.5×10^-8 M) was 28%, the activation at 0.025 µM (Human keratinocytes; Homo sapiens, Keratinocyte, read-out: increase in keratinocyte thymidine incorporation over the 2.5×10^-8 M retinyl palmitate treatment, Example 4, 2.5×10^-8 M) was 6% and the activation at 0.025 µM (Human keratinocytes; Homo sapiens, Keratinocyte, read-out: increase in keratinocyte thymidine incorporation over the ethanol control, Example 2, 2.5×10^-8 M) was 28%. It also gave an activation at 0.025 µM (Human keratinocytes; Homo sapiens, Keratinocyte, read-out: increase in keratinocyte thymidine incorporation over the ethanol control, Example 4, 2.5×10^-8 M) of 6%, an activity at 0.25 µM (Human keratinocytes; [11]) of 118% and an activity at 0.025 µM (Human keratinocytes; [12]) of 128%. The activity at 0.0025 µM (Human keratinocytes; [13]) was 122%, the activity at 0.025 µM (Human keratinocytes; [14]) was 106% and the “effect on keratinocyte proliferation (in words)” value (Human keratinocytes; listed as Retinoic acid) was “increased keratinocyte proliferation”. For the same compound, the “effect on keratinocyte proliferation (in words)” value (Human keratinocytes; listed as retinoic acid) was “significantly increased keratinocyte proliferation over both the ethanol control and each of the 2.5×10^-7 M, 2.5×10^-8 M and 2.5×10^-9 M retinol treatments and they did so in a dose dependant manner”.

For `CC1=C(/C=C/C(C)=C/C=C/C(C)=C/CO)C(C)(C)CCC1` [ROH, Retinol], the “mean TGase/DNA × 10^-4 ± s.d” value [1, 2] was 1.14 ± 0.22 × 10^-4, the “mean TGase/DNA × 10^-4 ± s.d” value [1, 3] was 1.89 ± 0.30 × 10^-4 and the “mean TGase/DNA × 10^-4 ± s.d” value [1, 4] was 2.70 ± 0.59 × 10^-4. The activity at 0.25 µM [1, 6] was 47%, the activity at 0.025 µM [1, 7] was 77% and the activity at 0.0025 µM [1, 8] was > 100%. The “effect on keratinocyte TGase level / differentiation (in words)” value ([1]; listed as Retinol) was “significantly less effective than retinoic acid at inhibiting keratinocyte differentiation”, the “effect on keratinocyte TGase level / differentiation (in words)” value ([1]; listed as retinol) was “The decrease in transglutaminase level was dose dependant for both retinoic acid and retinol” and the “effect on keratinocyte proliferation (in words)” value (Human keratinocytes) was “completely ineffective at increasing keratinocyte proliferation”. For the same compound, the “mean Thymidine incorp./μg protein ± s.d” value (Human keratinocytes; 2.5 × 10^-7 M, n = 3) was 2218 ± 73 DPM/μg protein, the “mean Thymidine incorp./μg protein ± s.d” value (Human keratinocytes; 2.5 × 10^-7 M, n = 3, listed as Retinol) was 2218 ± 79 DPM/μg protein and the “mean Thymidine incorp./μg protein ± s.d” value (Human keratinocytes; [10]) was 2034 ± 46 DPM/μg protein. The “mean Thymidine incorp./μg protein ± s.d” value (Human keratinocytes; 2.5 × 10^-9 M, n = 3) was 1977 ± 19 DPM/μg protein, the activity at 0.25 µM (Human keratinocytes; [11]) was 106% and the activity at 0.025 µM (Human keratinocytes; [12]) was 97%. For the same compound, the activity at 0.0025 µM (Human keratinocytes; [13]) was 94%.

With `CCCCCCCCCCCCCCCC(=O)OC/C=C(C)/C=C/C=C(C)/C=C/C1=C(C)CCCC1(C)C` [Retinyl Palmitate (RP), retinyl palmitate] the “effect on keratinocyte TGase level / differentiation (in words)” value [1] was “significantly less effective than retinoic acid at inhibiting keratinocyte differentiation”, the “mean TGase ± s.d” value [1, 5] was 0.790 ± 0.387 and the activity at 0.025 µM [1, 9] was 79%. The “effect on keratinocyte proliferation (in words)” value (Human keratinocytes) was “completely ineffective at increasing keratinocyte proliferation”, the “mean Thymidine incorp/μg protein ± s.d” value (Human keratinocytes; [5]) was 3386 ± 326 DPM/μg protein and the activity at 0.025 µM (Human keratinocytes; [14]) was 97%.
